Where “and” joins values, the source holds several entries; their conditions need not be identical. Identical values can stand only once.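 Five concentrations, 48 hours, 96-well plates. The concentration for 50% growth inhibition is given as GI50. At the TGI there is no net growth.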
How the values were obtained:
Assay in all cases: NCI tumour cell line growth inhibition, 48 h
COLO 205 colon = system: COLO 205 colon
HOP-62 NSCLC = system: HOP-62 NSCLC
LOX IMVI melanoma = system: LOX IMVI melanoma
M14 melanoma = system: M14 melanoma
RXF 393 renal = system: RXF 393 renal
SK-MEL-2 melanoma = system: SK-MEL-2 melanoma
SNB-19 CNS = system: SNB-19 CNS
SW-620 colon = system: SW-620 colon
T-47D breast = system: T-47D breast
U251 CNS = system: U251 CNS

Row | Compound | TGI (COLO 205 colon) | TGI (HOP-62 NSCLC) | TGI (LOX IMVI melanoma) | TGI (M14 melanoma) | TGI (RXF 393 renal) | TGI (SK-MEL-2 melanoma) | TGI (SNB-19 CNS) | TGI (SW-620 colon) | TGI (T-47D breast) | TGI (U251 CNS) | GI50 (COLO 205 colon) | GI50 (HOP-62 NSCLC) | GI50 (LOX IMVI melanoma) | GI50 (M14 melanoma) | GI50 (RXF 393 renal) | GI50 (SK-MEL-2 melanoma) | GI50 (SNB-19 CNS) | GI50 (SW-620 colon) | GI50 (T-47D breast) | GI50 (U251 CNS)
1 | O=C(O)C1CCCCC1C(=O)Nc1nc2ccccc2[nH]1 (stereo not drawn) | > 100 µM | > 100 µM | > 100 µM | > 100 µM | > 100 µM | > 100 µM | > 100 µM | > 100 µM | > 100 µM | > 100 µM | – | – | – | – | – | – | – | – | – | –
2 | O=C(Nc1cccc(-n2cc(-c3ccncc3)c(-c3ccc(O)c(Cl)c3)n2)c1)c1ccc(N2CCOCC2)c(C(F)(F)F)c1 | > 50 µM | > 50 µM | > 50 µM | > 50 µM | 2.25 µM | > 50 µM | > 50 µM | > 50 µM | > 50 µM | > 50 µM | 4.62 µM | 3.07 µM | 1.61 µM | 2.75 µM | 0.283 µM | 34 µM | > 50 µM | 4.05 µM | 2.99 µM | 0.917 µM
3 | COC(=O)c1cc(NC(=O)CN(CCN(CC(=O)O)CC(=O)Nc2ccc(O)c(C(=O)OC)c2)CC(=O)O)ccc1O | > 100 µM | > 100 µM | > 100 µM | > 100 µM | > 100 µM | > 100 µM | > 100 µM | > 100 µM | > 100 µM | > 100 µM | 72 µM | 42.3 µM | 38.5 µM | 41.9 µM | > 100 µM | > 100 µM | 41.9 µM | 74.9 µM | 32.7 µM | 43.8 µM
4 | COc1cc(CCNc2nc3cc(N)cc(N)c3nc2-c2ccccc2)cc(OC)c1 | 3.56 µM | 9.35 µM | 3.17 µM | 4.05 µM | 4.8 µM | 3.92 µM | 18.6 µM | 4.71 µM | 3.8 µM | 3.11 µM | 1.76 µM | 2.95 µM | 1.65 µM | 2 µM | 1.59 µM | 1.92 µM | 5.92 µM | 2.28 µM | 1.74 µM | 1.67 µM
5 | Cc1cccc2c1NC(=O)C2(c1ccc(O)cc1)c1ccc(O)cc1 | 11.1 µM | 38.3 µM | 25.6 µM | 41 µM | 0.709 µM | 37.8 µM | > 100 µM | 69.8 µM | – | 48.9 µM | 0.0135 µM | 14.8 µM | 6.76 µM | 15.5 µM | < 0.0181 µM | 15.7 µM | 28.5 µM | 20.8 µM | < 0.01 µM | 18.9 µM
6 | COc1ccc(OC)c(-c2cc(C(=O)O)c3cc4ccccc4cc3n2)c1 | > 100 µM | > 100 µM | > 100 µM | > 100 µM | > 100 µM | > 100 µM | > 100 µM | > 100 µM | > 100 µM | > 100 µM | – | – | – | – | – | – | – | – | – | –
7 | CS(=O)(=O)c1ccc(-c2[nH]c3ccc(F)cc3c2/C=N/NC(N)=S)cc1 | 5.14 µM | > 100 µM | > 100 µM | 22.3 µM | 63.1 µM | > 100 µM | > 100 µM | > 100 µM | 85 µM | > 100 µM | 1.47 µM | 1.64 µM | 0.84 µM | 0.312 µM | 1.21 µM | 10.6 µM | 1.31 µM | 0.575 µM | 12.3 µM | 0.777 µM
8 | CN1CCN(CCCN2c3ccccc3Sc3ccc(C(F)(F)F)cc32)CC1 | 3.15 µM and 3.65 µM and 9.3 µM | 3.94 µM and 24.9 µM and 26.5 µM | 3.28 µM and 8.79 µM and 11.2 µM | 3.53 µM and 3.38 µM and 3.35 µM | 4.62 µM and 23.1 µM and 15.5 µM | 4.26 µM and 15.4 µM and 15.6 µM | 4.45 µM and 26.8 µM and 29.3 µM | 4.44 µM and 18.1 µM and 21.4 µM | 3.63 µM and 20.2 µM and 23.1 µM | 3.56 µM and 18.1 µM and 21.4 µM | 1.64 µM and 1.8 µM and 3.87 µM | 1.73 µM | 1.59 µM | – | 1.78 µM and 10 µM and 4.08 µM | 2.34 µM | 1.86 µM | 1.85 µM and 3.67 µM and 8.47 µM | 1.6 µM | 1.7 µM
9 | O=C(c1ccncc1)N1CCN(C2=NS(=O)(=O)c3ccccc3N2c2ccccc2)CC1 | > 100 µM | 32.3 µM | > 100 µM | > 100 µM | 40.5 µM | 65.7 µM | 44.9 µM | 57.1 µM | 57.5 µM | > 100 µM | 30.3 µM | 8.06 µM | 11.5 µM | 13.3 µM | 18.5 µM | 28 µM | 15 µM | 15.5 µM | 10.9 µM | 8.32 µM
10 | COc1ccc(CCN2COc3ccc4ccc(=O)oc4c3C2)cc1OC | > 100 µM | > 100 µM | 49.4 µM | > 100 µM | > 100 µM | > 100 µM | > 100 µM | 69 µM | > 100 µM | > 100 µM | – | – | – | – | – | – | – | – | – | –
11 | Cc1cc(O)c(O)c(Oc2cc(C)cc(O)c2O)c1 | 36.4 µM | > 100 µM | 24.6 µM | 49.3 µM | 88.2 µM | > 100 µM | > 100 µM | > 100 µM | 84.9 µM | > 100 µM | – | – | – | – | – | – | – | – | – | –
12 | CS(=O)(=O)N(CC(=O)O)Cc1ccccc1 | > 100 µM | > 100 µM | > 100 µM | > 100 µM | > 100 µM | > 100 µM | > 100 µM | > 100 µM | > 100 µM | > 100 µM | – | – | – | – | – | – | – | – | – | –

Source: PubChem BioAssay (NCI)
